Results reported in patent publication US20120058997A1, “IMIDAZO[1,2-B]PYRIDAZINE AND PYRAZOLO[1,5-A]PYRIMIDINE DERIVATIVES AND THEIR USE AS PROTEIN KINASE INHIBITORS” (SuperGen, Inc., priority 2006, published 2012).
Like-named read-outs stand apart in the source and are kept apart here.

Target: Pim-1 kinase (Homo sapiens, UniProt P11309)
Assay: Promega Kinase-Glo Pim-1 kinase inhibition assay;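 also: in vitro Pim-1 reaction run 2 h at 30 °C, then leftover ATP measured by luciferase luminescence, where signal falls as kinase activity rises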
Type: biochemical
[1] = Table X, Kinase-Glo, read-out: IC50 on Pim1

Pim-1 kinase, sequence (P11309 whole entry): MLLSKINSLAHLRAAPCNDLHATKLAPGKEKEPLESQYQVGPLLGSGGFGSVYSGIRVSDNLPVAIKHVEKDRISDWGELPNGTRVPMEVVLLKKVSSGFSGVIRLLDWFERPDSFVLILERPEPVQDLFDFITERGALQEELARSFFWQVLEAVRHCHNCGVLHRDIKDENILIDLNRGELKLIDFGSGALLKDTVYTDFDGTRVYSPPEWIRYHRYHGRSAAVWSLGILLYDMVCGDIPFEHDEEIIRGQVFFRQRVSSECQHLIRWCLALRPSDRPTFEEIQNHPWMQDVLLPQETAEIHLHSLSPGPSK

Row | Compound | IC50 [1] [nM] | IC50 (Table VIII (results), values in nM, read-out: IC50(Kinase)) [nM]
1 | CC(C)(O)[C@H]1CC[C@H](Nc2ccn3ncc(-c4cccc(C(F)(F)F)c4)c3n2)CC1 [Compound 8-56] | 10 to 100 | –
2 | CC(C)(O)CCOc1ccc2ncc(-c3cccc(OC(F)(F)F)c3)n2n1 [Compound 8-41, 2-Methyl-4-((3-(3-(Trifluoromethoxy)phenyl)imidazo[1,2-b]pyridazin-6-yl)oxy)butan-2-ol] | 100 to 1000 | –
3 | C[C@]1(O)CC[C@H](Nc2ccc3ncc(-c4cccc(Cl)c4)n3n2)CC1 [Compound 8-36, 4-((3-(3-Chlorophenyl)imidazo[1,2-b]pyridazin-6-yl)amino)-1-methyl-trans-cyclohexanol] | 100 to 1000 | –
4 | CO[C@H]1CC[C@H](Nc2ccn3ncc(-c4cccc(Cl)c4)c3n2)CC1 [Compound 8-64] | 10 to 100 | –
5 | O=S1(=O)CCC(CNc2ccn3ncc(-c4cccc(C(F)(F)F)c4)c3n2)CC1 [Compound 8-59] | 100 to 1000 | –
6 | FC(F)(F)c1cccc(-c2cnn3ccc(NC4CCOCC4)nc23)c1 [Compound 8-58, N-(Tetrahydro-2H-pyran-4-yl)-3-(3-(trifluoromethyl)phenyl)pyrazolo[1,5-a]pyrimidin-5-amine] | 100 to 1000 | –
7 | CC(C)N1CCC(CNc2ccc3ncc(-c4cc(OC(F)(F)F)ccc4O)n3n2)CC1 [Compound 7-49, N-((1-isopropylpiperidin-4-yl)methyl)-3-(2-hydroxy-5-(trifluoromethoxy)phenyl)-imidazo[1,2-b]pyridazin-6-amine] | – | 310
8 | COc1ccc(CNc2ccc3ncc(-c4cccc(OC(F)(F)F)c4)n3n2)cc1 [Compound 8-43, N-(4-Methoxybenzyl)-3-(3-(trifluoromethoxy)phenyl)imidazo[1,2-b]pyridazin-6-amine] | 100 to 1000 | –
9 | CC(C)(O)[C@H]1CC[C@H](Nc2ccn3ncc(-c4cccc(OC(F)(F)F)c4)c3n2)CC1 [Compound 8-47] | 100 to 1000 | –
10 | C[C@]1(O)CC[C@H](Nc2ccn3ncc(-c4cccc(OC(F)(F)F)c4)c3n2)CC1 [Compound 8-48, 1-Methyl-4-((3-(3-(trifluoromethoxy)phenyl)pyrazolo[1,5-a]pyrimidin-5-yl)amino)-trans-cyclohexanol] | 100 to 1000 | –
11 | O=S1(=O)CCC(CNc2ccn3ncc(-c4cccc(OC(F)(F)F)c4)c3n2)CC1 [Compound 8-51, 4-(((3-(3-(Trifluoromethoxy)phenyl)pyrazolo[1,5-a]pyrimidin-5-yl)amino)methyl)tetrahydro-2H-thiopyran 1,1-dioxide] | 100 to 1000 | –
12 | CC(C)(O)[C@H]1CC[C@H](Nc2ccn3ncc(-c4cccc(Cl)c4)c3n2)CC1 [Compound 8-63] | 10 to 100 | –
13 | CO[C@H]1CC[C@H](Nc2ccn3ncc(-c4cccc(C(F)(F)F)c4)c3n2)CC1 [Compound 8-57, 4-(trans-Methoxycyclohexyl)-3-(3-(trifluoromethyl)phenyl)pyrazolo[1,5-a]pyrimidin-5-amine] | 10 to 100 | –
14 | N[C@H]1CC[C@H](Nc2ccn3ncc(-c4cccc(OC(F)(F)F)c4)c3n2)CC1 [Compound 8-52, N-(3-(3-(Trifluoromethoxy)phenyl)pyrazolo[1,5-a]pyrimidin-5-yl)cyclohexane-1,4-trans-diamine] | < 10 | –
15 | N[C@H]1CC[C@H](Nc2ccc3ncc(-c4cccc(Cl)c4)n3n2)CC1 [Compound 8-68] | 10 to 100 | –
16 | O=S1(=O)CCN(c2ccn3ncc(-c4cccc(C(F)(F)F)c4)c3n2)CC1 [Compound 8-60] | 1000 to 5000 | –
17 | Clc1cccc(-c2cnn3ccc(NC4CCOCC4)nc23)c1 [Compound 8-65] | 100 to 1000 | –
18 | C[C@]1(O)CC[C@H](Nc2ccn3ncc(-c4cccc(Cl)c4)c3n2)CC1 [Compound 8-62] | 100 to 1000 | –
19 | NCC1CCN(c2ccc3ncc(-c4cccc(OC(F)(F)F)c4)n3n2)C(=O)C1 (stereo not drawn) [Compound 8-24, 4-(Aminomethyl)-1-(3-(3-(trifluoromethoxy)phenyl)imidazo[1,2-b]pyridazin-6-yl)piperidin-2-one] | 10 to 100 | –
20 | Clc1cccc(-c2cnc3ccc(NC4CCOCC4)nn23)c1 [Compound 8-39] | < 10 | –
21 | CO[C@H]1CC[C@H](Nc2ccn3ncc(-c4cccc(OC(F)(F)F)c4)c3n2)CC1 [Compound 8-49, 4-(trans-Methoxycyclohexyl)-3-(3-(trifluoromethoxy)phenyl)pyrazolo[1,5-a]pyrimidin-5-amine] | 100 to 1000 | –
22 | FC(F)(F)Oc1cccc(-c2cnn3ccc(NC4CCOCC4)nc23)c1 [Compound 8-50, N-(Tetrahydro-2H-pyran-4-yl)-3-(3-(trifluoromethoxy)phenyl)pyrazolo[1,5-a]pyrimidin-5-amine] | 100 to 1000 | –
23 | O=S1(=O)CCC(CNc2ccn3ncc(-c4cccc(Cl)c4)c3n2)CC1 [Compound 8-66] | 100 to 1000 | –
24 | CN1CCC(CNc2ccn3ncc(-c4cccc(OC(F)(F)F)c4)c3n2)CC1 [Compound 8-67] | 10 to 100 | –

Next, values leading:

Row | IC50 [1] [nM] | IC50 (Table VIII (results), values in nM, read-out: IC50(Kinase)) [nM] | Compound
25 | 1000 to 5000 | – | O=S1(=O)CCC(Nc2ccc3ncc(-c4cccc(OC(F)(F)F)c4)n3n2)CC1 [Compound 8-14, 4-((3-(3-(Trifluoromethoxy)phenyl)imidazo[1,2-b]pyridazin-6-yl)amino)tetrahydro-2H-thiopyran 1,1-dioxide]
26 | 10 to 100 | – | O[C@H]1C[C@H](CNc2ccc3ncc(-c4cccc(OC(F)(F)F)c4)n3n2)C1 [Compound 8-7, 3-(((3-(3-(Trifluoromethoxy)phenyl)imidazo[1,2-b]pyridazin-6-yl)amino)methyl)-trans-cyclobutanol]
27 | 10 to 100 | – | FC(F)(F)Oc1cccc(-c2cnc3ccc(NCCN4CCOCC4)nn23)c1 [Compound 8-44, N-(2-morpholinoethyl)-3-(3-(trifluoromethoxy)phenyl)imidazo[1,2-b]pyridazin-6-amine]
28 | 10 to 100 | – | FC(F)(F)c1cccc(-c2cnc3ccc(NC4CCOCC4)nn23)c1 [Compound 8-33, N-(Tetrahydro-2H-pyran-4-yl)-3-(3-(trifluoromethyl)phenyl)imidazo[1,2-b]pyridazin-6-amine]
29 | 10 to 100 | – | C[C@]1(O)CC[C@H](Nc2ccc3ncc(-c4cccc(OC(F)(F)F)c4)n3n2)CC1 [Compound 8-9, 1-Methyl-4-((3-(3-(trifluoromethoxy)phenyl)imidazo[1,2-b]pyridazin-6-yl)amino)-trans-cyclohexanol]
30 | 10 to 100 | – | OCCN1CCC(CNc2ccc3ncc(-c4cccc(OC(F)(F)F)c4)n3n2)CC1 [Compound 8-27, 2-(4-(((3-(3-(Trifluoromethoxy)phenyl)imidazo[1,2-b]pyridazin-6-yl)amino)methyl)piperidin-1-yl)ethanol]
31 | < 10 | – | CC(C)(O)[C@H]1CC[C@H](Nc2ccc3ncc(-c4cccc(OC(F)(F)F)c4)n3n2)CC1 [Compound 8-10]
32 | 10 to 100 | – | O[C@@H]1CC[C@@H](Nc2ccc3ncc(-c4cccc(OC(F)(F)F)c4)n3n2)C1 [Compound 8-5, (1R,3R)3-((3-(3-(Trifluoromethoxy)phenyl)imidazo[1,2-b]pyridazin-6-yl)amino)cyclopentanol]
33 | 10 to 100 | – | N[C@H]1CCCN(c2ccc3ncc(-c4cccc(OC(F)(F)F)c4)n3n2)C1 [Compound 8-25, (S)-1-(3-(3-(Trifluoromethoxy)phenyl)imidazo[1,2-b]pyridazin-6-yl)piperidin-3-amine]
34 | < 10 | – | O[C@H]1CC[C@H](Oc2ccc3ncc(-c4cccc(OC(F)(F)F)c4)n3n2)CC1 [Compound 8-4, 4-((3-(3-(Trifluoromethoxy)phenyl)imidazo[1,2-b]pyridazin-6-yl)oxy)-trans-cyclohexanol]
35 | < 10 | – | CC(C)(O)[C@H]1CC[C@H](Nc2ccc3ncc(-c4cccc(C(F)(F)F)c4)n3n2)CC1 [Compound 8-31]
36 | 10 to 100 | – | CC(C)(O)CNc1ccc2ncc(-c3cccc(OC(F)(F)F)c3)n2n1 [Compound 8-6, 2-Methyl-1-((3-(3-(trifluoromethoxy)phenyl)imidazo[1,2-b]pyridazin-6-yl)amino)propan-2-ol]
37 | 10 to 100 | – | C[C@]1(O)CC[C@H](Nc2ccc3ncc(-c4cccc(C(F)(F)F)c4)n3n2)CC1 [Compound 8-30, 1-Methyl-4-((3-(3-(trifluoromethyl)phenyl)imidazo[1,2-b]pyridazin-6-yl)amino)-trans-cyclohexanol]
38 | 1000 to 5000 | – | O=C1CC(CNc2ccc3ncc(-c4cccc(OC(F)(F)F)c4)n3n2)CCN1 (stereo not drawn) [Compound 8-23, 4-(((3-(3-(Trifluoromethoxy)phenyl)imidazo[1,2-b]pyridazin-6-yl)amino)methyl)piperidin-2-one]
39 | 100 to 1000 | – | CO[C@H]1CC[C@H](Nc2ccc3ncc(-c4cccc(C(F)(F)F)c4)n3n2)CC1 [Compound 8-32, 4-(trans-Methoxycyclohexyl)-3-(3-(trifluoromethyl)phenyl)imidazo[1,2-b]pyridazin-6-amine]
40 | 100 to 1000 | – | O=S1(=O)CCC(CNc2ccc3ncc(-c4cccc(C(F)(F)F)c4)n3n2)CC1 [Compound 8-34, 4-(((3-(3-(Trifluoromethyl)phenyl)imidazo[1,2-b]pyridazin-6-yl)amino)methyl)tetrahydro-2H-thiopyran 1,1-dioxide]
41 | < 10 | – | N[C@H]1CC[C@H](Nc2ccc3ncc(-c4cccc(OC(F)(F)F)c4)n3n2)CC1 [Compound 8-8, (3-(3-(Trifluoromethoxy)phenyl)imidazo[1,2-b]pyridazin-6-yl)cyclohexane-trans-1,4-diamine]
42 | 100 to 1000 | – | O=S1(=O)CCC(CNc2ccc3ncc(-c4cccc(Cl)c4)n3n2)CC1 [Compound 8-40, 4-(((3-(3-Chlorophenyl)imidazo[1,2-b]pyridazin-6-yl)amino)methyl)tetrahydro-2H-thiopyran 1,1-dioxide]
43 | 100 to 1000 | – | CC(C)O[C@H]1CC[C@H](Nc2ccc3ncc(-c4cccc(OC(F)(F)F)c4)n3n2)CC1 [Compound 8-16, 4-(trans-Isopropoxycyclohexyl)-3-(3-(trifluoromethoxy)phenyl)imidazo[1,2-b]pyridazin-6-amine]
44 | 1000 to 5000 | – | FC(F)(F)Oc1cccc(-c2cnc3ccc(NCC4CCSCC4)nn23)c1 [Compound 8-18, N-((tetrahydro-2H-thiopyran-4-yl)methyl)-3-(3-(trifluoromethoxy)phenyl)imidazo[1,2-b]pyridazin-6-amine]
45 | 1000 to 5000 | – | FC1(F)CCC(CNc2ccc3ncc(-c4cccc(OC(F)(F)F)c4)n3n2)CC1 [Compound 8-17, N-((4,4-difluorocyclohexyl)methyl)-3-(3-(trifluoromethoxy)phenyl)imidazo[1,2-b]pyridazin-6-amine]
